Target: human APJ receptor (Homo sapiens (Human), UniProt P35414)
Experiment: [35S]GTPγS binding assay on membranes from CHO cells stably expressing human APJ receptor
Type: biochemical
Settings: read-out: Activity hAPJ SPA EC50 IP
Experimental: [^35S]GTPγS Binding The human APJ receptor was cloned by polymerase chain reaction and the gene encoding the receptor was subcloned in pFLAG-CMV™-3 expression vector (Sigma, Saint Louis, Mo. USA) in-house at Amgen. A GTPγS binding assay was performed on membranes prepared from CHO cells stably expressing human APJ receptor. The optimum experimental conditions for the concentrations of GDP, MgCl2, and NaCl in the assay buffer were initially determined. […] Incubation was at RT for 90 min and the microplate was read using a ViewLux™ ultra HTS Microplate Imager (PerkinElmer, Inc.). All the results presented are means of several independent experiments and analyzed by non-linear regression methods using the commercially available program Prism (GraphPad, San Diego, Calif.) providing the EC50 values detailed in Table 13.

Chain of human APJ receptor (P35414 whole entry): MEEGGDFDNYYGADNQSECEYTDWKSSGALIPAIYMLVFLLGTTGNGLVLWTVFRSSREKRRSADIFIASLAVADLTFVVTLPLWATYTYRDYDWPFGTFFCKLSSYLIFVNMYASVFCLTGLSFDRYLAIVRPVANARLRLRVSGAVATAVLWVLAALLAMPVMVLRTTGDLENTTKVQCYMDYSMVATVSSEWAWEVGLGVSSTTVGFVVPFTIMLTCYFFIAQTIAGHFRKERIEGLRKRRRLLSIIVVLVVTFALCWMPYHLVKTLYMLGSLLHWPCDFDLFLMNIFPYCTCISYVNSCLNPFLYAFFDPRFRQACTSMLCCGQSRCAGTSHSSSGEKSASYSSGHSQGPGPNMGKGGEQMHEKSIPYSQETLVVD

SMILES | EC50 [nM]
CO[C@H](c1ncc(C)cn1)[C@H](C)S(=O)(=O)Nc1nnc2n1[C@H](COC(C)C)COc1ncccc1-2 (single isomer, unassigned) [Example 63.0, (1R,2S)-N-((R)-5-(isopropoxymethyl)-5,6-dihydropyrido[3,2-f][1,2,4]triazolo[4,3-d][1,4]oxazepin-3-yl)-1-methoxy-1-(5-methylpyrimidin-2-yl)propane-2-sulfonamide or (1R,2S)-N-((S)-5-(isopropoxymethyl)-5,6-dihydropyrido[3,2-f][1,2,4]triazolo[4,3-d][1,4]oxazepin-3-yl)-1-methoxy-1-(5-methylpyrimidin-2-yl)propane-2-sulfonamide] | 800
Cc1cnc([C@H](OC(C)C)[C@H](C)S(=O)(=O)Nc2nnc3n2-c2c(F)cccc2/C=C\CC3)nc1 (single isomer, unassigned) [Example 48.0, (P)(1S,2S)-N-((Z)-11-Fluoro-4,5-dihydrobenzo[g][1,2,4]triazolo[4,3-a]azocin-1-yl)-1-isopropoxy-1-(5-methylpyrimidin-2-yl)propane-2-sulfonamide or (M)(1S,2S)-N-((Z)-11-fluoro-4,5-dihydrobenzo[g][1,2,4]triazolo[4,3-a]azocin-1-yl)-1-isopropoxy-1-(5-methylpyrimidin-2-yl)propane-2-sulfonamide] | > 12500
COC[C@@H]1COc2ccc(OC)nc2-c2nnc(NS(=O)(=O)[C@@H](C)[C@@H](OC(C)C)c3ncc(C)cn3)n21 (single isomer, unassigned) [Example 15.0, (1S,2S)-N-((5R)-10-methoxy-5-(methoxymethyl)-5,6-dihydropyrido[2,3-f][1,2,4]triazolo[4,3-d][1,4]oxazepin-3-yl)-1-(5-methyl-2-pyrimidinyl)-1-(2-propanyloxy)-2-propanesulfonamide or (1S,2S)-N-((5S)-10-methoxy-5-(methoxymethyl)-5,6-dihydropyrido[2,3-f][1,2,4]triazolo[4,3-d][1,4]oxazepin-3-yl)-1-(5-methyl-2-pyrimidinyl)-1-(2-propanyloxy)-2-propanesulfonamide] | 37
COC[C@@H]1COc2cc(F)c(F)cc2-c2nnc(NS(=O)(=O)[C@@H](C)[C@@H](OC(C)C)c3ncc(C)cn3)n21 (single isomer, unassigned) [Example 20.0, (1S,2S)-N-((5R)-9,10-difluoro-5-(methoxymethyl)-5,6-dihydro[1,2,4]triazolo[4,3-d][1,4]benzoxazepin-3-yl)-1-(5-methyl-2-pyrimidinyl)-1-(2-propanyloxy)-2-propanesulfonamide or (1S,2S)-N-((5S)-9,10-difluoro-5-(methoxymethyl)-5,6-dihydro[1,2,4]triazolo[4,3-d][1,4]benzoxazepin-3-yl)-1-(5-methyl-2-pyrimidinyl)-1-(2-propanyloxy)-2-propanesulfonamide] | 990
COC[C@@H]1COc2ccccc2-c2nnc(NS(=O)(=O)[C@@H](C)[C@H](C)c3ncc(OC)cn3)n21 (single isomer, unassigned) [Example 2.0, (2S,3R)-N-((5R)-5-(methoxymethyl)-5,6-dihydro[1,2,4]triazolo[4,3-d][1,4]benzoxazepin-3-yl)-3-(5-methoxy-2-pyrimidinyl)-2-butanesulfonamide or (2S,3R)-N-((5S)-5-(methoxymethyl)-5,6-dihydro[1,2,4]triazolo[4,3-d][1,4]benzoxazepin-3-yl)-3-(5-methoxy-2-pyrimidinyl)-2-butanesulfonamide] | 770
COC[C@@H]1COc2cnccc2-c2nnc(NS(=O)(=O)[C@@H](C)[C@@H](OC(C)C)c3ncc(C)cn3)n21 (mixture of isomers) [Example 65.0, (1S,2S)-N-((5R)-5-(methoxymethyl)-5,6-dihydropyrido[4,3-f][1,2,4]triazolo[4,3-d][1,4]oxazepin-3-yl)-1-(5-methyl-2-pyrimidinyl)-1-(2-propanyloxy)-2-propanesulfonamide and (1S,2S)-N-((5S)-5-(methoxymethyl)-5,6-dihydropyrido[4,3-f][1,2,4]triazolo[4,3-d][1,4]oxazepin-3-yl)-1-(5-methyl-2-pyrimidinyl)-1-(2-propanyloxy)-2-propanesulfonamide] | 1200
COC[C@@H]1COc2ncccc2-c2nnc(NS(=O)(=O)CCc3ncc(C)cn3)n21 (single isomer, unassigned) [Example 34.0, N-((5R)-5-(methoxymethyl)-5,6-dihydropyrido[3,2-f][1,2,4]triazolo[4,3-d][1,4]oxazepin-3-yl)-2-(5-methyl-2-pyrimidinyl)ethanesulfonamide or N-((5S)-5-(methoxymethyl)-5,6-dihydropyrido[3,2-f][1,2,4]triazolo[4,3-d][1,4]oxazepin-3-yl)-2-(5-methyl-2-pyrimidinyl)ethanesulfonamide] | 180
Cc1cnc([C@H](OC(C)C)[C@H](C)S(=O)(=O)Nc2nnc3n2[C@H](CO)COc2ncccc2-3)nc1 (mixture of isomers) [Example 30.0, (1S,2S)-N-((5R)-5-(hydroxymethyl)-5,6-dihydropyrido[3,2-f][1,2,4]triazolo[4,3-d][1,4]oxazepin-3-yl)-1-(5-methyl-2-pyrimidinyl)-1-(2-propanyloxy)-2-propanesulfonamide and (1S,2S)-N-((5S)-5-(hydroxymethyl)-5,6-dihydropyrido[3,2-f][1,2,4]triazolo[4,3-d][1,4]oxazepin-3-yl)-1-(5-methyl-2-pyrimidinyl)-1-(2-propanyloxy)-2-propanesulfonamide] | 460
COC[C@@H]1COc2ccc(OC)nc2-c2nnc(NS(=O)(=O)[C@@H](C)[C@H](C)c3ncc(C)cn3)n21 (single isomer, unassigned) [Example 12.0, (2S,3R)-N-((5R)-10-methoxy-5-(methoxymethyl)-5,6-dihydropyrido[2,3-f][1,2,4]triazolo[4,3-d][1,4]oxazepin-3-yl)-3-(5-methyl-2-pyrimidinyl)-2-butanesulfonamide or (2S,3R)-N-((5S)-10-methoxy-5-(methoxymethyl)-5,6-dihydropyrido[2,3-f][1,2,4]triazolo[4,3-d][1,4]oxazepin-3-yl)-3-(5-methyl-2-pyrimidinyl)-2-butanesulfonamide] | 1200
COC[C@@H]1COc2ncccc2-c2nnc(NS(=O)(=O)[C@@H](C)[C@@H](OC(C)C)c3ncc(C)cn3)n21 (single isomer, unassigned) [Example 40.0] | 86
Cc1cnc([C@H](OC(C)C)[C@H](C)S(=O)(=O)Nc2nnc3n2-c2ccccc2/C=C\CC3)nc1 (single isomer, unassigned) [Example 47.0, (P) (1S,2S)-N-((Z)-4,5-dihydrobenzo[g][1,2,4]triazolo[4,3-a]azocin-1-yl)-1-isopropoxy-1-(5-methylpyrimidin-2-yl)propane-2-sulfonamide or (M) (1S,2S)-N-((Z)-4,5-dihydrobenzo[g][1,2,4]triazolo[4,3-a]azocin-1-yl)-1-isopropoxy-1-(5-methylpyrimidin-2-yl)propane-2-sulfonamide] | > 12500
COC[C@@H]1COc2cc(F)c(F)cc2-c2nnc(NS(=O)(=O)[C@@H](C)[C@@H](OC(C)C)c3ncc(C)cn3)n21 (single isomer, unassigned) [Example 21.0, (1S,2S)-N-((5R)-9,10-difluoro-5-(methoxymethyl)-5,6-dihydro[1,2,4]triazolo[4,3-d][1,4]benzoxazepin-3-yl)-1-(5-methyl-2-pyrimidinyl)-1-(2-propanyloxy)-2-propanesulfonamide or (1S,2S)-N-((5S)-9,10-difluoro-5-(methoxymethyl)-5,6-dihydro[1,2,4]triazolo[4,3-d][1,4]benzoxazepin-3-yl)-1-(5-methyl-2-pyrimidinyl)-1-(2-propanyloxy)-2-propanesulfonamide] | 3400
COC[C@@H]1COc2ncccc2-c2nnc(NS(=O)(=O)[C@@H](C)[C@@H](OC(C)C)c3ncc(C)cn3)n21 (mixture of isomers) [Example 32.0, (1S,2S)-N-((5R)-5-(methoxymethyl)-5,6-dihydropyrido[3,2-f][1,2,4]triazolo[4,3-d][1,4]oxazepin-3-yl)-1-(5-methyl-2-pyrimidinyl)-1-(2-propanyloxy)-2-propanesulfonamide and (1S,2S)-N-((5S)-5-(methoxymethyl)-5,6-dihydropyrido[3,2-f][1,2,4]triazolo[4,3-d][1,4]oxazepin-3-yl)-1-(5-methyl-2-pyrimidinyl)-1-(2-propanyloxy)-2-propanesulfonamide] | 140
CO[C@H](c1ncc(C)cn1)[C@H](C)S(=O)(=O)Nc1nnc2n1[C@H](CO)COc1ncccc1-2 (mixture of isomers) [Example 36.0, (1R,2S)-N-((5R)-5-(hydroxymethyl)-5,6-dihydropyrido[3,2-f][1,2,4]triazolo[4,3-d][1,4]oxazepin-3-yl)-1-methoxy-1-(5-methyl-2-pyrimidinyl)-2-propanesulfonamide and (1R,2S)-N-((5S)-5-(hydroxymethyl)-5,6-dihydropyrido[3,2-f][1,2,4]triazolo[4,3-d][1,4]oxazepin-3-yl)-1-methoxy-1-(5-methyl-2-pyrimidinyl)-2-propanesulfonamide] | 1800
COCC1COc2ccc(OC)cc2-c2nnc(NS(=O)(=O)[C@@H](C)[C@@H](OC(C)C)c3ncc(C)cn3)n21 (single isomer, unassigned) [Example 152.0, (1S,2S)-N-((5R)-10-methoxy-5-(methoxymethyl)-5,6-dihydro[1,2,4]triazolo[4,3-d][1,4]benzoxazepin-3-yl)-1-(5-methyl-2-pyrimidinyl)-1-(2-propanyloxy)-2-propanesulfonamide or (1S,2S)-N-((5S)-10-methoxy-5-(methoxymethyl)-5,6-dihydro[1,2,4]triazolo[4,3-d][1,4]benzoxazepin-3-yl)-1-(5-methyl-2-pyrimidinyl)-1-(2-propanyloxy)-2-propanesulfonamide] | 37

Source: patent US11149040B2, “Fused triazole agonists of the APJ receptor” (AMGEN INC., priority 2017, dated 2021)
